≈ marks a conversion by molar mass, not a printed value.
Experiments:
Test in all cases: ≥ marks a high value that may be exact or a test limit, other limits are often not marked, values filed in µg/mL are converted to µM
[1] = tested on: Candida albicans ATCC 18804
[2] = tested on: Staphylococcus aureus ATCC 25923
[3] = tested on: Escherichia coli ATCC 25922
[4] = tested on: Staphylococcus aureus IFO 13276
Bacillus cereus IFO 3457 = tested on: Bacillus cereus IFO 3457
[5] = tested on: Vibrio parahaemolyticus IFO12711
[6] = tested on: Bacillus subtilis IFO 13722
[7] = tested on: Salmonella enterica subsp. enterica serovar Typhimurium ATCC 14028
[8] = tested on: Salmonella enterica subsp. enterica serovar Enteritidis ATCC 1891
[9] = tested on: Escherichia coli ATCC 39188
[10] = tested on: Staphylococcus aureus Smith
Escherichia coli CE273 = tested on: Escherichia coli CE273
[11] = tested on: Staphylococcus aureus FDA 209P JC-1
[12] = tested on: Escherichia coli NIHJ JC-2
[13] = tested on: Escherichia coli JCM 1649
[14] = tested on: Bacillus subtilis ATCC 6633
Escherichia coli CR3 = tested on: Escherichia coli CR3
[15] = tested on: Staphylococcus aureus JCM 2431
[16] = tested on: Pseudomonas aeruginosa KCTC 1637
[17] = tested on: Bacillus megaterium KCTC 1096
[18] = tested on: Staphylococcus aureus KCTC 1621
Proteus vulgaris = tested on: Proteus vulgaris
[19] = tested on: Bacillus subtilis KCTC 1918
[20] = tested on: Escherichia coli KCTC 1682
[21] = tested on: Escherichia coli CCARM 1229
[22] = tested on: Pasteurella multocida C48-3
[23] = tested on: Pseudomonas aeruginosa ATCC 15692
[24] = tested on: Proteus vulgaris KCTC 2433
[25] = tested on: Salmonella typhimurium SL1344
[26] = tested on: Listeria monocytogenes CICC 21533
[27] = tested on: Salmonella enterica subsp. enterica serovar Choleraesuis C78-1
[28] = tested on: Escherichia coli ATCC 12795
[29] = tested on: Salmonella typhimurium CCARM 8013
[30] = tested on: Salmonella typhimurium KCTC 1926
[31] = tested on: Escherichia coli CCARM 1238
[32] = tested on: Bacillus subtilis CICC 24434
[33] = tested on: Staphylococcus epidermidis LY8
Escherichia coli E44813 = tested on: Escherichia coli E44813
[34] = tested on: Streptococcus pyogenes KCTC 3096
Pasteurella multocida = tested on: Pasteurella multocida
[35] = tested on: Salmonella typhimurium CCARM 8009

Work on `CC[C@H](C)[C@H](NC(=O)[C@H](C)NC(=O)[C@H](CCC(=O)O)NC(=O)[C@H](CO)NC(=O)[C@@H](N)Cc1ccccc1)C(=O)N[C@@H](CCCCN)C(=O)N[C@@H](CCCCN)C(=O)N[C@H](C(=O)N[C@H](C(=O)N[C@@H](CC(=O)O)C(=O)N[C@@H](Cc1ccccc1)C(=O)N[C@@H](CC(C)C)C(=O)NCC(=O)N[C@@H](CCC(=O)O)C(=O)NCC(=O)N[C@@H](CC(C)C)C(=O)N[C@@H](Cc1ccccc1)C(=O)N[C@@H](CC(=O)O)C(=O)N[C@H](C(=O)N[C@H](C(=O)N[C@@H](CCCCN)C(=O)N[C@@H](CCCCN)C(=O)N[C@H](C(=O)N[C@@H](C)C(=O)N[C@@H](CCC(=O)O)C(=O)N[C@@H](CO)C(=O)N[C@@H](Cc1ccccc1)C(=O)O)[C@@H](C)CC)[C@@H](C)CC)[C@@H](C)CC)[C@@H](C)CC)[C@@H](C)CC` [FSEAIKKIIDFLGEGLFDIIKKIAESF] yielded an MIC [1] of at least 128 µM, an MIC [2] of over 128 µM and an MIC [3] of 128 µM (≈ 393 µg/mL).

For `CC[C@H](C)[C@H](NC(=O)CNC(=O)[C@H](CCCCN)NC(=O)[C@H](Cc1c[nH]c2ccccc12)NC(=O)[C@H](CC(N)=O)NC(=O)[C@@H](N)CCCCN)C(=O)N[C@@H](C)C(=O)NCC(=O)N[C@@H](CCSC)C(=O)N[C@@H](C)C(=O)N[C@@H](CCCCN)C(=O)N[C@@H](CCCCN)C(=O)N[C@@H](CC(C)C)C(=O)N[C@@H](CC(C)C)C(=O)NCC(=O)N[C@@H](CCCCN)C(=O)N[C@@H](CC(N)=O)C(=O)N[C@@H](Cc1c[nH]c2ccccc12)C(=O)N[C@@H](CCCCN)C(=O)N[C@@H](CC(C)C)C(=O)N[C@@H](CCSC)C(=O)O` [KNWKGIAGMAKKLLGKNWKLM], the MIC [4] was 25 µM (≈ 60.4 µg/mL), the MIC (Bacillus cereus IFO 3457) was 3.1 µM (≈ 7.49 µg/mL) and the MIC [5] was at least 50 µM. The MIC [6] was 6.3 µM (≈ 15.2 µg/mL), the MIC [7] was 6.3 µM (≈ 15.2 µg/mL) and the MIC [8] was 6.3 µM (≈ 15.2 µg/mL). It also gave an MIC [9] of 3.1 µM (≈ 7.49 µg/mL), an MIC [10] of 6.3 µM (≈ 15.2 µg/mL) and an MIC (Escherichia coli CE273) of 3.1 µM (≈ 7.49 µg/mL). It also gave an MIC [11] of 1.6 µM (≈ 3.87 µg/mL), an MIC [12] of 3.1 µM (≈ 7.49 µg/mL) and an MIC [13] of 6.3 µM (≈ 15.2 µg/mL). It also gave an MIC [14] of 3.1 µM (≈ 7.49 µg/mL), an MIC (Escherichia coli CR3) of 6.3 µM (≈ 15.2 µg/mL) and an MIC [15] of 12.5 µM (≈ 30.2 µg/mL).

`CC[C@H](C)[C@H](NC(=O)[C@H](CCCCN)NC(=O)[C@H](CCCCN)NC(=O)[C@H](Cc1ccccc1)NC(=O)[C@H](CC(C)C)NC(=O)[C@H](CCCCN)NC(=O)[C@H](Cc1c[nH]c2ccccc12)NC(=O)[C@@H](N)CCCCN)C(=O)N1CCC[C@H]1C(=O)N[C@@H](CC(C)C)C(=O)N[C@@H](CCCCN)C(=O)N[C@@H](CCCCN)C(=O)N[C@@H](Cc1ccccc1)C(N)=O` [KWKLFKKIPLKKF] gave an MIC [16] of 12.5 µM (≈ 21.3 µg/mL), an MIC [17] of 3.12 µM (≈ 5.32 µg/mL) and an MIC [18] of 12.5 µM (≈ 21.3 µg/mL). The MIC (Proteus vulgaris) was 3.12 µM (≈ 5.32 µg/mL), the MIC [19] was 1.56 µM (≈ 2.66 µg/mL) and the MIC [20] was 12.5 µM (≈ 21.3 µg/mL).

In the case of `CC[C@H](C)[C@H](NC(=O)[C@@H](NC(=O)[C@@H](N)CCCN=C(N)N)[C@@H](C)CC)C(=O)N[C@@H](CC(=O)O)C(=O)N[C@@H](CC(C)C)C(=O)N[C@@H](CC(C)C)C(=O)N[C@@H](Cc1c[nH]c2ccccc12)C(=O)N[C@@H](CCCN=C(N)N)C(=O)N[C@H](C(=O)N[C@@H](CCCN=C(N)N)C(=O)N[C@@H](CCCN=C(N)N)C(=O)N1CCC[C@H]1C(=O)N[C@@H](CCC(N)=O)C(=O)N[C@@H](CCCCN)C(=O)N1CCC[C@H]1C(=O)N[C@@H](CCCCN)C(=O)N[C@@H](Cc1ccccc1)C(=O)N[C@H](C(=O)N[C@H](C(=O)N[C@H](C(=O)N[C@@H](Cc1c[nH]c2ccccc12)C(=O)N[C@H](C(=O)N[C@@H](CCCN=C(N)N)C(=O)O)C(C)C)C(C)C)[C@@H](C)O)C(C)C)C(C)C` [RIIDLLWRVRRPQKPKFVTVWVR], the MIC [21] is reported as 4 µM (≈ 11.9 µg/mL), the MIC [16] is reported as 1.56 µM (≈ 4.62 µg/mL) and the MIC [22] is reported as 1.05 µM (≈ 3.12 µg/mL). It also gave an MIC [23] of 8 µM (≈ 23.7 µg/mL), an MIC [18] of 3.12 µM (≈ 9.26 µg/mL) and an MIC [2] of 0.0165 µM (≈ 0.0489 µg/mL). The MIC [24] was 16 µM (≈ 47.4 µg/mL), the MIC [25] was 1.05 µM (≈ 3.12 µg/mL) and the MIC [26] was at least 42.2 µM. For the same compound, the MIC [27] was 0.527 µM (≈ 1.56 µg/mL), the MIC [28] was 0.4 µM (≈ 1.19 µg/mL) and the MIC [29] was 4 µM (≈ 11.9 µg/mL). It also gave an MIC [19] of 1.56 µM (≈ 4.62 µg/mL), an MIC [20] of 1.56 µM (≈ 4.62 µg/mL) and an MIC [30] of 1.77 µM (≈ 5.23 µg/mL). For the same compound, the MIC [31] was 2 µM (≈ 5.93 µg/mL), the MIC [32] was 0.527 µM (≈ 1.56 µg/mL) and the MIC [33] was 8.44 µM (≈ 25 µg/mL). The MIC (Escherichia coli E44813) was 8.44 µM (≈ 25 µg/mL), the MIC [34] was 1.56 µM (≈ 4.62 µg/mL) and the MIC (Pasteurella multocida) was 6.8 µM (≈ 20.1 µg/mL). For the same compound, the MIC [3] was 4 µM (≈ 11.9 µg/mL) and the MIC [35] was 4 µM (≈ 11.9 µg/mL).

Source: DBAASP
